These compounds were tested on platelet aggregation (assay: Test for platelet aggregation-inhibiting activity of rabbit (PAF-induced aggregation in platelet rich plasma)). Conditions: rabbit PRP, 37°C, 10 minutes incubation, aggregation by PAF (10 μl); test compound concentration not given.
Format: cell-based
Design: dose or concentration left out as unconfirmed
Procedure: 2. Test for platelet aggregation-inhibiting activity of rabit
A blood of a rabbit (Japanese white; male; 2.5-3.0 kg) was exsanguinated from a carotid of the rabbit, and nine parts of the blood were mixed with one part of a 3.8% aqueous solution of sodium citrate. The mixture was centrifuged at 1100 rpm at 20°C. for 15 minutes. The upper layer is a platelet rich plasma (PRP), and the lower layer was centrifuged at 2500 rpm at 20° C. for 10 minutes, so that a platelet poor plasma (PPP) was obtained.
10 μl of a solution of the compound to be tested was added to 200 μl of PRP, and the mixture was subjected to incubation at 37°C. for 10 minutes. To the mixture was added 10 μl of a platelet activating factor (PAF)(10 mg/ml). The agglutination was measured by Agricometer (NKK, PAT-4A).
In the case of `CCOC(=O)C1(NC(=O)C2=C(C)NC(C)=C(C(=O)OC)C2c2cccc([N+](=O)[O-])c2)CCCCC1` (stereo not shown) [Example 67, ethyl 1-[N-[1,4-dihydro-2,6-dimethyl-5-methoxycarbonyl-4-(3-nitrophenyl)pyridine-3-carbonyl]amino]cyclohexanecarboxylate], the “Platelet Aggregation-Inhibiting Activity” value is reported as 33.8%.
With `CCOC(=O)C(C)(C)NC(=O)C1=C(C)NC(C)=C(C(=O)OC)C1c1cccc([N+](=O)[O-])c1` (stereo not shown) [Example 68, ethyl 2-[N-[1,4-dihydro-2,6-dimethyl-5-methoxycarbonyl-4-(3-nitrophenyl)pyridine-3-carbonyl]amino]isobutyrate] the “Platelet Aggregation-Inhibiting Activity” value was 34.1%.
In the case of `CCOC(=O)c1ccccc1NC(=O)C1=C(C)NC(C)=C(C(=O)OC)C1c1cccc([N+](=O)[O-])c1` (stereo not shown) [Example 69, ethyl 2-[N-[1,4-dihydro-2,6-dimethy1-5-methoxycarbonyl-4-(3-nitrophenyl)pyridine-3-carbonyl]amino]-benzoate], the “Platelet Aggregation-Inhibiting Activity” value is reported as 23.3%.
In the case of `CCOC(=O)c1nccnc1NC(=O)C1=C(C)NC(C)=C(C(=O)OC)C1c1cccc([N+](=O)[O-])c1` (stereo not shown) [Example 70, ethyl 3-[N-[1,4-dihydro-2,6-dimethyl-5-methoxycarbonyl-4-(3-nitrophenyl)pyridine-3-carbonyl]amino]pyrazine-2-carboxylate], the “Platelet Aggregation-Inhibiting Activity” value is reported as 27.1%.
For `COC(=O)C1=C(C)NC(c2ccccc2)=C(C(=O)N[C@H](C(=O)OC(C)(C)C)C(C)C)C1c1cccc([N+](=O)[O-])c1` (stereo partly shown) [Example 71, t-butyl 2-[N-[1,4-dihydro-6-methyl-5-methoxycarbonyl-4-(3-nitrophenyl)-2-phenylpyridine-3-carbonyl]amino]-3-methylbutylate], the “Platelet Aggregation-Inhibiting Activity” value was 100%.
With `CCOC(=O)C1=C(c2ccccc2)NC(C)=C(C(=O)NCC(=O)OC(C)(C)C)C1c1cccc([N+](=O)[O-])c1` (stereo not shown) [Example 76] the “Platelet Aggregation-Inhibiting Activity” value was 46.3%.
For `COC(=O)C1=C(C)NC(C)=C(C(=O)NCC(=O)OC(C)(C)C)[C@@H]1c1cccc([N+](=O)[O-])c1` [Example 79, (+)-t-butyl (S)-[2-[N-[1,4-dihydro-2,6-dimethyl-5-methoxycarbonyl-4-(3-nitrophenyl)pyridin-3-yl]-carbonyl]amino]acetate], the “Platelet Aggregation-Inhibiting Activity” value was 100%.
